In patent US20250134869A1, “Pyrrolo[2,3-d]pyrimidinyl, Pyrrolo[2,3-b]pyrazinyl and Pyrrolo[2,3-d]pyridinyl Acryla-mides” (Pfizer Inc, priority 2021, published 2025):
Like-named read-outs stand apart in the source and are kept apart here.

Target: JAK3 enzyme (Homo sapiens (Human), UniProt P52333)
Assay: JAK Caliper Enzyme Assay at 4 μM or 1 mM ATP
Type: biochemical
[1] = read-out: JAK3 (4 μM ATP) IC50, 4 μM ATP
[2] = read-out: JAK3 (1 mM ATP) IC50, 1 mM ATP

Sequence of JAK3 enzyme (P52333 whole entry, species assumed): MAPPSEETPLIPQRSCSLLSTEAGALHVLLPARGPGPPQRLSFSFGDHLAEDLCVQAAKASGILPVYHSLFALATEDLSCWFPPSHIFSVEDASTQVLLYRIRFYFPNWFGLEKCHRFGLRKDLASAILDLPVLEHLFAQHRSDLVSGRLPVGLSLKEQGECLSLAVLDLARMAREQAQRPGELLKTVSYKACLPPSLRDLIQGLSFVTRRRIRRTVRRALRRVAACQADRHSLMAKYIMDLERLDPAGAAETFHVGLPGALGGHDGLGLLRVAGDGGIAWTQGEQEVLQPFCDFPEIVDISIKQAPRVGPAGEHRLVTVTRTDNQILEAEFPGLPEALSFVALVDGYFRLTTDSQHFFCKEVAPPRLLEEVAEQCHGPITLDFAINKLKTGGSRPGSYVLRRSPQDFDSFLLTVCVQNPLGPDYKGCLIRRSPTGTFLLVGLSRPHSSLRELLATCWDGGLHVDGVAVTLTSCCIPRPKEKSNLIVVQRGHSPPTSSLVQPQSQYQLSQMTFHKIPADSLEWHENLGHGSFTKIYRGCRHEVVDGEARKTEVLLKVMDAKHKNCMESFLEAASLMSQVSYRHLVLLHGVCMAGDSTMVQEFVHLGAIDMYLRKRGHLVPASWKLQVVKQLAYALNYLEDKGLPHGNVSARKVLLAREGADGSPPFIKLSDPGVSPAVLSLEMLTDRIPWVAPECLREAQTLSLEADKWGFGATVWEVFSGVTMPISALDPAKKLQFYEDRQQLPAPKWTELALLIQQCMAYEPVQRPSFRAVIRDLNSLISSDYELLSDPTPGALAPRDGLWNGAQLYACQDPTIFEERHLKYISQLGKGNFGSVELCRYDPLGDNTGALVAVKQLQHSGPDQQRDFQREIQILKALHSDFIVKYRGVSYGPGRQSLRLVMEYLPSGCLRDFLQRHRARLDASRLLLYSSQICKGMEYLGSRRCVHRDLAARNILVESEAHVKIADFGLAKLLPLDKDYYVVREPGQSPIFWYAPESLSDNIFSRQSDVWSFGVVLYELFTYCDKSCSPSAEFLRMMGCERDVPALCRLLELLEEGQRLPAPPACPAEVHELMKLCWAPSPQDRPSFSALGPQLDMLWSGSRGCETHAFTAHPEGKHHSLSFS

| Structure (SMILES) | IC50 [1] [nM] | IC50 [2] [nM] |
| --- | --- | --- |
| C=CC(=O)N1CCC(Nc2cnc3[nH]cc(C(=O)N[C@H](C)COC)c3n2)CC1 [Example 268, 2-[(1-acryloylpiperidin-4-yl)amino]-N-[(2R)-1-methoxypropan-2-yl]-5H-pyrrolo[2,3-b]pyrazine-7-carboxamide] | 0.3 | 7.9 |
| C=CC(=O)N1CCC(Nc2cnc3[nH]cc(C(=O)NCC4CC(F)(F)C4)c3n2)CC1 [Example 238, 2-[(1-acryloylpiperidin-4-yl)amino]-N-[(3,3-difluorocyclobutyl)methyl]-5H-pyrrolo[2,3-b]pyrazine-7-carboxamide] | 0.2 | 9.3 |
| C=CC(=O)N1CCC(Nc2cnc3[nH]cc(C(=O)N4CCC4)c3n2)CC1 [Example 284, 1-(4-{[7-(azetidin-1-ylcarbonyl)-5H-pyrrolo[2,3-b]pyrazin-2-yl]amino}piperidin-1-yl)prop-2-en-1-one] | 1.9 | 176 |
| C/C=C/C(=O)N1CCC[C@@H](N(C)c2ncnc3[nH]cc(CCOC)c23)C1 [Example 135, (2E)-1-[(3R)-3-{[5-(2-Methoxyethyl)-7H-pyrrolo[2,3-d]pyrimidin-4-yl](methyl)amino}-piperidin-1-yl]but-2-en-1-one] | > 10000 |  |
| C=CC(=O)N1CCC(Nc2cnc3[nH]cc(C(=O)NC(C)(C)C)c3n2)CC1 [Example 266, 2-[(1-acryloylpiperidin-4-yl)amino]-N-tert-butyl-5H-pyrrolo[2,3-b]pyrazine-7-carboxamide] | 0.3 | 13.6 |
| C=CC(=O)N1CCC[C@@H](Nc2ncnc3[nH]cc(C(=O)N4CCCC4)c23)C1 [Example 146, 1-[(3R)-3-{[5-(pyrrolidin-1-ylcarbonyl)-7H-pyrrolo[2,3-d]pyrimidin-4-yl]amino}pipendin-1-yl]prop-2-en-1-one] | 957 |  |
| CN(C)C/C=C/C(=O)N1CCC[C@@H](Nc2ncnc3[nH]cc(CCC#N)c23)C1 [Example 157, 3-[4-({(3R)-1-[(2E)-4-(Dimethylamino)but-2-enoyl]piperidin-3-yl}amino)-7H-pyrrolo[2,3-d]pyrimidin-5-yl]propanenitrile] | 1470 |  |
| C=CC(=O)N1CCC(Nc2cnc3[nH]cc(C(=O)N[C@H](CC)CC#N)c3n2)CC1 [Example 263, 2-[(1-acryloylpiperidin-4-yl)amino]-N-[(2R)-1-cyanobutan-2-yl]-5H-pyrrolo[2,3-b]pyrazine-7-carboxamide] | 0.2 | 8.7 |
| C=CC(=O)N1CC[C@@H](Nc2cnc3[nH]cc(C(=O)NC(C)C)c3n2)[C@@H](F)C1 [Example 320, 2-{[(3S,4R)-1-acryloyl-3-fluoropiperidin-4-yl]amino}-N-(propan-2-yl)-5H-pyrrolo[2,3-b]pyrazine-7-carboxamide] | 0.4 | 10.7 |
| C=CC(=O)N1CCC(Nc2cnc3[nH]cc(C(=O)N(C)C4CC4)c3n2)CC1 [Example 286, 2-[(1-acryloylpiperidin-4-yl)amino]-N-cyclopropyl-N-methyl-5H-pyrrolo[2,3-b]pyrazine-7-carboxamide] | 15.9 | 814 |
| C=CC(=O)N1CCN(c2cnc3[nH]cc(C(=O)NC(C)C)c3n2)[C@@H](C2CC2)C1 [Example 314, 2-[(2S)-4-acryloyl-2-cyclopropylpiperazin-1-yl]-N-(propan-2-yl)-5H-pyrrolo[2,3-b]pyrazine-7-carboxamide] | 5 | 662 |
| C=CC(=O)N1[C@H](C)CN(c2cnc3[nH]cc(C(=O)NC(C)C)c3n2)C[C@@H]1C [Example 306, 2-[(3R,5S)-4-acryloyl-3,5-dimethylpiperazin-1-yl]-N-(propan-2-yl)-5H-pyrrolo[2,3-b]pyrazine-7-carboxamide] | 3.9 | 326 |
| C=CC(=O)N1CC[C@H](F)[C@@H](Nc2ncnc3[nH]ccc23)C1 [Example 4, 1-((3S,4S)-3-((7H-pyrrolo[2,3-d]pyrimidin-4-yl)amino)-4-fluoropiperidin-1-yl)prop-2-en-1-one] | 0.5 | 32.1 |
| C=CC(=O)N1CCC(Nc2cnc3[nH]cc(C(=O)NCC(C)C)c3n2)CC1 [Example 272, 2-[(1-acryloylpiperidin-4-yl)amino]-N-(2-methylpropyl)-5H-pyrrolo[2,3-b]pyrazine-7-carboxamide] | 0.2 | 8.8 |
| C/C=C/C(=O)N1CCC[C@@H](Nc2ncnc3[nH]cc(C(=O)N4CCCC4)c23)C1 [Example 147, (2E)-1-[(3R)-3-{[5-(pyrrolidin-1-ylcarbonyl)-7H-pyrrolo[2,3-d]pyrimidin-4-yl]amino}pipendin-1-yl]but-2-en-1-one] | > 10000 |  |
| C=CC(=O)N1CCC(Nc2cnc3[nH]cc(-c4ccc(F)nc4)c3n2)CC1 [Example 207, 1-(4-{[7-(6-fluoropyridin-3-yl)-5H-pyrrolo[2,3-b]pyrazin-2-yl]amino}piperidin-1-yl)prop-2-en-1-one] | 0.3 | 28.9 |
| C=CC(=O)N1CC(Nc2cnc3[nH]cc(C(=O)NC(C)C)c3n2)C1 [Example 188, 2-[(1-acryloylazetidin-3-yl)amino]-N-(propan-2-yl)-5H-pyrrolo[2,3-b]pyrazine-7-carboxamide] | 0.3 | 8.8 |
| C=CC(=O)N1CC2COCC(C1)N2c1cnc2[nH]cc(C(=O)NC(C)C)c2n1 [Example 324, 2-(7-acryloyl-3-oxa-7,9-diazabicyclo[3.3.1]non-9-yl)-N-(propan-2-yl)-5H-pyrrolo[2,3-b]pyrazine-7-carboxamide] | 37.5 | 3100 |

| Structure (SMILES) | IC50 [1] [nM] | IC50 [2] [nM] |
| --- | --- | --- |
| C=CC(=O)N1CCC(Oc2cnc3[nH]cc(-c4c(C)noc4C)c3n2)CC1 [Example 224, 1-(4-{[7-(3,5-dimethyl-1,2-oxazol-4-yl)-5H-pyrrolo[2,3-b]pyrazin-2-yl]oxy}piperidin-1-yl)prop-2-en-1-one] | 17.6 | 1540 |
| C=CC(=O)NC1CCN(c2cnc3[nH]ccc3n2)C1 (stereo not shown) [Example 167, N-[1-(5H-pyrrolo[2,3-b]pyrazin-2-yl)pyrrolidin-3-yl]prop-2-enamide] | 2410 |  |
| C=CC(=O)N1CCC[C@@H](Nc2ncnc3[nH]cc(C4CC4)c23)C1 [Example 37, 1-{(3R)-3-[(5-cyclopropyl-7H-pyrrolo[2,3-d]pyrimidin-4-yl)amino]piperidin-1-yl}prop-2-en-1-one] | 295 |  |
| C=CC(=O)N1CCC[C@@H](Nc2ncnc3[nH]cc(/C=C/c4ccoc4)c23)C1 [Example 38, 1-[(3R)-3-({5-[(E)-2-(furan-3-yl)ethenyl]-7H-pyrrolo[2,3-d]pyrimidin-4-yl}amino)piperidin-1-yl]prop-2-en-1-one] | 3250 |  |
| C/C=C\C(=O)N1CCC[C@@H](Nc2ncnc3[nH]ccc23)C1 [Example 102, (2Z)-1-[(3R)-3-(7H-pyrrolo[2,3-d]pyrimidin-4-ylamino)piperidin-1-yl]but-2-en-1-one] | 353 | > 10000 |
| C=CC(=O)N1CCC[C@H](Nc2ncnc3[nH]ccc23)C1 [Example 104, 1-[(3S)-3-(7H-pyrrolo[2,3-d]pyrimidin-4-ylamino)piperidin-1-yl]prop-2-en-1-one] | 64.5 |  |
| C=CC(=O)N1CCC[C@@H](N(C)c2ncnc3[nH]cc(CCOC)c23)C1 [Example 136, 1-[(3R)-3-{[5-(2-Methoxyethyl)-7H-pyrrolo[2,3-d]pyrimidin-4-yl](methyl)amino]piper-idin-1-yl]prop-2-en-1-one] | 238 |  |
| C=CC(=O)N1CCC[C@@H](Nc2ncnc3[nH]cc(C(=O)N(C)C)c23)C1 [Example 142, 4-{[(3R)-1-acryloylpiperidin-3-yl]amino}-N,N-dimethyl-7H-pyrrolo[2,3-d]pyrimidine-5-carboxamide] | 225 |  |
| C=CC(=O)N1CCN(c2cnc3[nH]cc(C(=O)NC(C)C)c3n2)[C@H](C2CC2)C1 [Example 309, 2-[(2R)-4-acryloyl-2-cyclopropylpiperazin-1-yl]-N-(propan-2-yl)-5H-pyrrolo[2,3-b]pyrazine-7-carboxamide] | 6.6 | 814 |
| O=C(/C=C\CO)N1CCC[C@@H](Nc2ncnc3[nH]ccc23)C1 [Example 100, (2Z)-4-hydroxy-1-[(3R)-3-(7H-pyrrolo[2,3-d]pyrimidin-4-ylamino)piperidin-1-yl]but-2-en-1-one] | 654 | > 10000 |
| C=CC(=O)N1CC[C@@H](Nc2cnc3[nH]cc(C(=O)NC(C)C)c3n2)[C@H](O)C1 [Example 196, 2-{[(3R,4R)-1-acryloyl-3-hydroxypiperidin-4-yl]amino}-N-(propan-2-yl)-5H-pyrrolo[2,3-b]pyrazine-7-carboxamide] | 0.3 | 30.6 |
| C=CC(=O)N1CC[C@@H](C)[C@@H](N(C)c2ncnc3[nH]ccc23)C1 [Example 130, 1-{(3R,4R)-4-Methyl-3-[methyl(7H-pyrrolo[2,3-d]pyrimidin-4-yl)amino]piperidin-1-yl}prop-2-en-1-one] | 75.2 |  |
| C=CC(=O)N1CCC(Oc2cnc3[nH]cc(C(=O)NC(C)C)c3n2)CC1 [Example 339, 2-((1-Acryloylpiperidin-4-yl)oxy)-N-isopropyl-5H-pyrrolo[2,3-b]pyrazine-7-carboxamide] | 0.2 | 17.5 |
| C=CC(=O)N1CCC(Nc2cnc3[nH]cc(C(=O)N[C@H]4CC[C@H](F)C4)c3n2)CC1 [Example 247, 2-[(1-acryloylpiperidin-4-yl)amino]-N-[(1S,3S)-3-fluorocyclopentyl]-5H-pyrrolo[2,3-b]pyrazine-7-carboxamide] | 0.2 | 8.2 |
| C=CC(=O)N1CCC[C@@H](Nc2ncnc3[nH]cc(CC(C)(C)O)c23)C1 [Example 53, (R)-1-(3-((5-(2-Hydroxy-2-methylpropyl)-7H-pyrrolo[2,3-d]pyrimidin-4-yl)amino)piperidin-1-yl)prop-2-en-1-one] | 4 | 192 |
| C/C=C/C(=O)N1CCC[C@@H](Nc2ncnc3[nH]cc(Cc4ccc(O)cc4)c23)C1 [Example 138, (2E)-1-[(3R)-3-{[5-(4-Hydroxybenzyl)-7H-pyrrolo[2,3-d]pyrimidin-4-yl]amino}piperidin-1-yl]but-2-en-1-one] | 110 |  |
| C=CC(=O)N1CCCN(c2cnc3[nH]cc(C(=O)NC(C)C)c3n2)CC1 [Example 185, 2-(4-acryloyl-1,4-diazepan-1-yl)-N-(propan-2-yl)-5H-pyrrolo[2,3-b]pyrazine-7-carboxamide] | 20.4 | 1460 |
